Read-outs that look alike come from different tables or passages of the source.
Legend:
[1] = Freeze/thaw and long-term stability of QC samples in rat plasma; format: physicochemical; details: n = 6; for Freeze/thaw stability Accuracy: frozen –80°C / thawed 25°C three cycles; for long-term stability Accuracy: –80°C for thirty days
Experimental: The LQC, MQC, and HQC samples were stored at –80°C for thirty days. The employed samples were tested to assess long-term stability. Six replicates of all QC samples were frozen at –80°C and thawed at 25°C for three cycles, which were then determined to assess the freeze/thaw cycle stability. The variabilities of precision and accuracy should be within15%.

[2] = Pharmacokinetics of GCK in SPF and pseudo-GF rats after single oral administration (LC-MS/MS of plasma); format: in vivo, Sprague-Dawley (SD) rats; details: for AUC(0-inf) / Tmax / half-life / AUC(0-t) / CL/F / MRT last / Vd/F / Cmax: Sprague-Dawley, rat, plasma, po, 22.5 mg/kg, GCK 22.5 mg/kg single oral dose; for AUC(0-t): read-out: AUC (0–11); for CL/F: read-out: CLz/F (converted); for MRT last: read-out: MRT(0–11); for Vd/F: read-out: Vz/F; for Cmax: rat plasma, n = 7, mean ± SD
Experimental: SD rats were randomly divided into two groups: normal control group (SPF group, n = 7) and pseudo-GF group (n = 7). To deplete the gut microbiota, a solution of ampicillin (50 mg/kg), vancomycin (25 mg/kg), neomycin sulfate (50 mg/kg), and metronidazole (50 mg/kg) were orally administered. Fresh antibiotic concoction with fed ampicillin in water (0.25 g/L) were prepared every day for a week. The feces were collected three days after withdrawal, and then the gut bacterial DNA was extracted with a stool DNA kit (Omega, D4015-01) and measured by Nonodrop 3000 spectrophotometer (Shimadzu, Japan).
The mass spectrometer analysis was performed on QTRAP 6500^+ low mass spectrometers. The Phenomenex LUNA C18 (2) Reversed Phase (Phenomenex, 150 × 2.0 mm, i.d., 5 μm) was used for the chromatographic separation with a mobile phase of acetonitrile (A) and the aqueous phase of 2 mM ammonium acetate (B) at a flow rate of 0.3 mL/min. The gradient elution procedure was set at 0−2 min: 20%A, 2−3 min: 20−65%A, 3−4 min: 65−75%A, 4−5 min: 75−90%A, 5−6 min: 90−100%A, and the re-equilibration time was set for 5 mins with 20%A after gradient elution. The tailing factors under the selected chromatographic conditions were calculated as 0.993 and 0.996 for GCK and PPD, respectively, while the theoretical plates were measured as 1.13 × 10^4. The injection volume was 10 μL with the temperature of column at 40°C. The mass spectrometer parameters were optimized as follow, Curtain Gas (CUR), 35; collision gas, 9;, ionspray voltage,-4500 V; temperature, 450°C; curtain gas, 35 psi; ion source gas 1, 50 psi; ion source gas 2, 55 psi. Both GCK and PPD were analyzed in multiple reaction monitoring (MRM) mode, shown as Fig 1.
After fasted for 12 h, all animals were once orally administrated with a medium dose of GCK (22.5 mg/kg) in 0.9% normal saline. Blood samples were collected from the tail vein at 0 h, 0.5 h, 1 h, 1.5 h, 2.5 h, 3 h, 3.5 h, 4 h, 5 h, 6 h, 7 h, 9.5 h, and 11 h after oral administration. All blood samples were immediately centrifuged at 4000 rpm for 20 min at 4°C. Approximate 100 μL of supernatant was collected and stored at -80°C for analysis. Non-compartmental model analysis was operated on DAS 2.0 software of the Chinese Pharmacological Society, and pharmacokinetic parameters were calculated accordingly.
The blood samples (50 μL) were mixed with 150 μL of digoxin solution (Internal standard (IS), 3.33 ng/mL), subsequently vortex-mixed and centrifuged at 1.4 × 10^4 rpm (4°C) to remove the precipitated proteins for 10 min, respectively. Finally, 100 μL of supernatant was subjected to LC-MS/ MS analysis.
Pharmacokinetics parameters including AUC, terminal elimination half-life (T1/2), mean retention time (MRT), apparent distribution volume (Vz/ F), and clearance rate (CL) were calculated using non-compartmental model analysis (DAS 2.0 software, Chinese Pharmacological Association, China). Other parameters, such as maximum plasma concentration (Cmax) and time to maximum plasma concentration (Tmax), were obtained directly from the plasma concentration-time diagram. All data were expressed as mean ± SD. Significant differences were marked by the symbols ** p < 0.01, *** p < 0.001, and **** p < 0.0001.

[3] = set-up: method as in PMID 28955238; details: human plasma, single dose of oral GCK; ref [14]; cited from earlier work
[4] = high QC (GCK 552, PPD 456 ng/mL)
[5] = low QC (GCK 10.8, PPD 8.91 ng/mL)
[6] = middle QC (GCK 86.3, PPD 71.3 ng/mL)
[7] = pseudo-GF rats compared with SPF rats

CC(C)=CCCC(C)(OC1OC(CO)C(O)C(O)C1O)C1CCC2(C)C1C(O)CC1C3(C)CCC(O)C(C)(C)C3CCC12C (stereo not drawn) [GCK, Ginsenoside Compound K]
Freeze/thaw stability Accuracy [1, 4]: 104.11% | Freeze/thaw stability Accuracy [1, 5]: 102.76% | Freeze/thaw stability Accuracy [1, 6]: 106.47% | long-term stability Accuracy [1, 4]: 103.91% | long-term stability Accuracy [1, 5]: 95.56% | long-term stability Accuracy [1, 6]: 103.32% | AUC(0-inf) ([2]; SPF group): 679 ± 284 ng·h/mL | Tmax ([2]; SPF group): 3.36 ± 1.25 h | half-life ([2]; SPF group): 2.2 ± 1.69 h | AUC(0-t) ([2]; SPF group): 586 ± 161 ng·h/mL | CL/F ([2]; SPF group): 632 mL/min/kg | MRT last ([2]; SPF group): 4.16 ± 1.11 h | Vd/F ([2]; SPF group): 96.5 ± 44.9 L/kg | Cmax ([2]; SPF group): 162 ± 46.9 ng/mL | AUC(0-inf) ([2]; pseudo-GF group): 2300 ± 1630 ng·h/mL | Tmax ([2]; pseudo-GF group): 5.86 ± 1.35 h | half-life ([2]; pseudo-GF group): 3.93 ± 1.65 h | AUC(0-t) ([2]; pseudo-GF group): 1340 ± 402 ng·h/mL | CL/F ([2]; pseudo-GF group): 226 mL/min/kg | MRT last ([2]; pseudo-GF group): 6.05 ± 0.42 h | Vd/F ([2]; pseudo-GF group): 63.2 ± 15.4 L/kg | Cmax ([2]; pseudo-GF group): 259 ± 70 ng/mL | AUC increased ([2]; pseudo-GF group compared with SPF group): approximately twice | AUC 0–11 increased by [2, 7]: 1.3 times | Cmax times higher than that of SPF rats [2, 7]: 1.6 times | CLz/F decreased by ([2]; pseudo-GF rats compared with SPF rats, P <0.01): 0.6 times

CC(C)=CCC[C@](C)(O)[C@H]1CC[C@]2(C)[C@@H]1[C@H](O)C[C@@H]1[C@@]3(C)CC[C@H](O)C(C)(C)[C@@H]3CC[C@]12C [PPD, protopanaxadiol]
Freeze/thaw stability Accuracy [1, 4]: 89.65% | Freeze/thaw stability Accuracy [1, 5]: 92.44% | Freeze/thaw stability Accuracy [1, 6]: 93.50% | long-term stability Accuracy [1, 4]: 101.93% | long-term stability Accuracy [1, 5]: 96.17% | long-term stability Accuracy [1, 6]: 97.83% | Cmax of PPD [3]: ~4.2 ng/mL | T1/2 of PPD [3]: more than 19 hours | Tmax of PPD [3]: ~25 h | Detection of the metabolite PPD in rat plasma ([2]; after single oral GCK 22.5 mg/kg, both SPF and pseudo-GF groups, LLOQ 4.45 ng/mL): not detected
